# Measurements published in PMC4138103 (PLoS ONE, 2014).
# Assay: Margin of exposure calculations
# Design: species or system human
# Details: for MoE, Liver p53 / MoE, Spontanous locomotor activity: females; for MoE, Liver retinol / MoE, Serum chlolesterol / MoE, Serum thyroxine / MoE, Serum triglycerids: males
# Description: They include values from the WHO mother's milk survey in 2001–2002 [1], [2], adipose tissue from the Finnish general population in 1997–1999 [83] and, plasma from the Baltic Sea fisherman cohort in 1997–1999 [41] and placenta from a Danish–Finnish joint prospective cohort in 1997–2001 [40]. WHO has established uncertainty factors (UF) for estimating tolerable intake levels of environmental chemicals. As rat and human tissue concentration data are used no interspecies toxicokinetic UF is needed. A toxicodynamic factor of 2.5 is applied to cover the interspecies variability and a factor of 10 to cover the inter-individual variability in humans. Thus, the UF of 25 is considered adequate for human health endpoints of NDL-PCBs.
# [1] = Worst case: the most exposed fisherman
# [2] = human cohort Baltic Sea fishermen
# [3] = human cohort General population (Finland)
# [4] = human cohort Placenta (Denmark)
# [5] = human cohort Placenta (Finland)
compound,measurement,setting,value
"Clc1cc(Cl)c(-c2cc(Cl)c(Cl)c(Cl)c2Cl)cc1Cl [PCB 180, 2,2′,3′,4,4′,5,5′-heptachlorobiphenyl]","MoE, Liver p53",[1],25
same,"MoE, Spontanous locomotor activity",[1],0.438
same,"MoE, Liver p53",[2],65.2
same,"MoE, Spontanous locomotor activity",[2],1.14
same,"MoE, Liver p53",[3],316
same,"MoE, Spontanous locomotor activity",[3],5.53
same,"MoE, Liver p53",human cohort Mother's milk,655
same,"MoE, Spontanous locomotor activity",human cohort Mother's milk,11.5
same,"MoE, Liver p53",[4],3109
same,"MoE, Spontanous locomotor activity",[4],54.4
same,"MoE, Liver p53",[5],5396
same,"MoE, Spontanous locomotor activity",[5],94.4
same,"MoE, Liver retinol",[1],15.7
same,"MoE, Serum chlolesterol",[1],76.2
same,"MoE, Serum thyroxine",[1],97.5
same,"MoE, Serum triglycerids",[1],6.05
same,"MoE, Liver retinol",[2],40.9
same,"MoE, Serum chlolesterol",[2],199
same,"MoE, Serum thyroxine",[2],254
same,"MoE, Serum triglycerids",[2],15.8
same,"MoE, Liver retinol",[3],198
same,"MoE, Serum chlolesterol",[3],963
same,"MoE, Serum thyroxine",[3],1233
same,"MoE, Serum triglycerids",[3],76.5
same,"MoE, Liver retinol",human cohort Mother's milk,410
same,"MoE, Serum chlolesterol",human cohort Mother's milk,1996
same,"MoE, Serum thyroxine",human cohort Mother's milk,2555
same,"MoE, Serum triglycerids",human cohort Mother's milk,159
same,"MoE, Liver retinol",[4],1948
same,"MoE, Serum chlolesterol",[4],9472
same,"MoE, Serum thyroxine",[4],12124
same,"MoE, Serum triglycerids",[4],752
same,"MoE, Liver retinol",[5],3381
same,"MoE, Serum chlolesterol",[5],16439
same,"MoE, Serum thyroxine",[5],21043
same,"MoE, Serum triglycerids",[5],1306
